The values that follow are results of earlier work, collected in patent US20090030079A1 (priority 2007, published 2009).

For data set [1] the following is noted: Mn^2+; cited from earlier work.
For data set [2] the following is noted: Fe^2+; cited from earlier work.
For data set [3] the following is noted: In^3+, cited from earlier work.
The conditions of data set [4]: cited from earlier work.

Read-outs that look alike come from different tables or passages of the source.

`NCCNCCNCCN` [Trientine, N,N′-bis (2-aminoethyl)-1,2-ethanediamine]: the “binding stability constant (log K)” value is recorded as 4.90 in data set [1] and 7.76 in data set [2].
For the compound `CC(C)(S)[C@@H](N)C(=O)O` [Penicillamine, 3-mercapto-D-valine], the “binding stability constant (log K)” value in data set [3] is given as 15.33; in data set [3] (listed as penicillamine), “very strongly”. Further, the solubility entry is reported as “insoluble” in data set [4] (in acetone); “slightly soluble” in data set [4] (in alcohol); “insoluble” in data set [4] (in benzene); “insoluble” in data set [4] (in carbon tetrachloride); “insoluble” in data set [4] (in ether); “freely soluble” in data set [4] (in water).
